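Five concentrations, 48 hours, 96-well plates. At the GI50, growth is halved.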 The source made the active and inactive calls. Rule as the data show it: active = GI50 up to about 1.1 µM and inactive = higher.
Tests used:
Assay in all cases: DTP human tumour cell line panel, 48 h
DMS-114 = system: DMS-114
DMS-273 = system: DMS-273
KM-20L2 = system: KM-20L2
LXFL 529 = system: LXFL 529
M19-MEL = system: M19-MEL
RXF 631 = system: RXF 631
SNB-78 = system: SNB-78
XF498 = system: XF498
HOP-18 = system: HOP-18

Structure (SMILES)	GI50 (DMS-114)	GI50 (DMS-273)	GI50 (KM-20L2)	GI50 (LXFL 529)	GI50 (M19-MEL)	GI50 (RXF 631)	GI50 (SNB-78)	GI50 (XF498)	GI50 (HOP-18)
CCOC(=O)C(C)c1c(C(=O)c2ccc(C)nc2)c2ccccc2n1C (configuration not stated)	> 100 µM (inactive)	> 100 µM (inactive)	> 100 µM (inactive)	> 100 µM (inactive)	> 100 µM (inactive)	> 100 µM (inactive)	> 100 µM (inactive)	83 µM (inactive)	–
C=C(C)c1nc(Oc2ccccc2)nc(Oc2ccccc2)n1	3.01 µM (inactive)	6.43 µM (inactive)	9.98 µM (inactive)	2 µM (inactive)	2.88 µM (inactive)	3.69 µM (inactive)	5.4 µM (inactive)	1.73 µM (inactive)	16.6 µM (inactive)
Cc1cc(N(CCC#N)S(=O)(=O)c2ccccc2)ccc1/C=N/c1ccc(C(=O)O)cc1	3.41 µM (inactive)	6.61 µM (inactive)	9.82 µM (inactive)	1.76 µM (inactive)	2.75 µM (inactive)	–	12.3 µM (inactive)	8.71 µM (inactive)	3.24 µM (inactive)
Cc1cc(N(CCC#N)CCC#N)ccc1/N=N/c1ccc(S(N)(=O)=O)cc1	> 100 µM (inactive)	> 100 µM (inactive)	–	> 100 µM (inactive)	–	> 100 µM (inactive)	> 100 µM (inactive)	0.0413 µM (active)	51.1 µM (inactive)
CCCCCCCCCCCCCCCCCC(=O)OCC(CN(C)CCN(C)C)OC(=O)CCCCCCCCCCCCCCCCC (configuration not stated)	46.1 µM (inactive)	> 100 µM (inactive)	> 100 µM (inactive)	72.4 µM (inactive)	–	55.5 µM (inactive)	> 100 µM (inactive)	–	20.6 µM (inactive)
CC(=O)N1[C@H](C(=O)O)CS[C@H]1c1ccncc1	> 100 µM (inactive)	–	> 100 µM (inactive)	> 100 µM (inactive)	> 100 µM (inactive)	–	> 100 µM (inactive)	–	> 100 µM (inactive)
Cc1ccc(S(=O)(=O)OCOS(=O)(=O)c2ccc(C)cc2)cc1	> 100 µM (inactive)	> 100 µM (inactive)	> 100 µM (inactive)	> 100 µM (inactive)	> 100 µM (inactive)	–	> 10 µM (inactive)	–	> 100 µM (inactive)
CCCCCC(C[N+]1(C)CCOCC1)C(=O)/C=C/c1ccccc1 (configuration not stated)	9.62 µM (inactive)	2.91 µM (inactive)	15.9 µM (inactive)	3.18 µM (inactive)	14.6 µM (inactive)	–	14.1 µM (inactive)	14.4 µM (inactive)	14.8 µM (inactive)
CCOC(=O)C1=C(NC)OC/C1=N\NC(=O)c1ccccc1O	20.7 µM (inactive)	23.1 µM (inactive)	39.7 µM (inactive)	39.8 µM (inactive)	29.9 µM (inactive)	–	96.6 µM (inactive)	56.4 µM (inactive)	14.8 µM (inactive)
O=C1Sc2sc(=S)sc2SC1c1ccccc1 (configuration not stated)	34.3 µM (inactive)	> 100 µM (inactive)	> 63.5 µM (inactive)	–	60.4 µM (inactive)	–	31.9 µM (inactive)	45.2 µM (inactive)	48.1 µM (inactive)
C#C[C@]1(O)CCC2C3CCc4cc(Oc5nc(F)nc(-c6c7cc8ccccc8cc7c7n6CCS7)n5)ccc4C3CCC21C (some centres not stated)	21.5 µM (inactive)	23.8 µM (inactive)	32.7 µM (inactive)	39.5 µM (inactive)	30.3 µM (inactive)	–	> 100 µM (inactive)	> 100 µM (inactive)	> 100 µM (inactive)
O=P1(NCCCl)OCCC(OO)N1CCCl (configuration not stated)	31.6 µM (inactive)	47.3 µM (inactive)	> 100 µM (inactive)	–	34.8 µM (inactive)	–	34.2 µM (inactive)	–	39.9 µM (inactive)
CSC(SC)=C1Sc2cccc(Cl)c2S1	26.4 µM (inactive)	46.2 µM (inactive)	36.9 µM (inactive)	69.8 µM (inactive)	43.5 µM (inactive)	–	> 100 µM (inactive)	29.9 µM (inactive)	> 100 µM (inactive)

From ChEMBL document CHEMBL1201862, “PubChem BioAssay data set” (2004)
